According to patent EP3428647A1, “EXPRESSION SIGNATURE FOR GLIOMA DIAGNOSIS AND/OR PROGNOSIS IN A SUBJECT” (Consejo Superior de Investigaciones Científicas (CSIC), priority 2017, dated 2019):
Read-outs that look alike come from different tables or passages of the source.

How the values were obtained:
[1] = tested on: U251MG; assay: Cytotoxic assay MTT, monolayer culture; assay type: cell-based; conditions: Homo sapiens
Experimental: (§1) The human Glioblastoma cell line SF268 and U251MG were cultured in RPMI 1640 medium (SIGMA) supplemented with 10% Fetal Bovine Serum (FBS) at 37°C under 5% CO2 atmosphere. For DNA transfection, SF268 and U251MG were transfected with Mirus TransIT-X2 Dynamic Delivery System (Mirus MIR6000) in exponential phase with 2.5 µg of a small hairping RNA (shRNA) against NAMPT (QIAGEN SureSilencing shRNA insert sequence: 5'-[…]-3' (SEQ ID NO: 17)), 2.5 µg of DNA carrying an hygromycin empty vector (QIAGEN noncoding sequence: 5'-[…]-3' (SEQ ID NO: 18)) and 2.5 µg of DNA of pCMV-hygromycin carrying a cDNA of NAMPT gene (SinoBiological HG10990-M).
(§2) For the assay, 5x10^3 cells were seeded and then treated with the different compound at 11 different concentrations at 1/3 dilutions after 24 hours. Then, 96 hours later, cell viability was measured via MTT assay and validated independently by crystal violet staining. IC50 was calculated as the concentration allowing 50% survival compared to day 0 controls. Combination experiments were performed testing 11 different concentrations at 1/3 dilutions of FK866 and maintaining same suboptimal concentration of TMZ (as indicated) in all tested points.

[2] = tested on: SF268; assay: Cytotoxic assay MTT, monolayer culture; assay type: cell-based, human; conditions: for IC50: Homo sapiens, monolayer
Experimental: as §1
5x10^3 SF268 cells were seeded then treated with FK866 24 hours later. After 96 hours, cell viability was measured with MTT.
as §2

[3] = tested on: SF268 tumorspheres; assay: Cytotoxic assay, tumorsphere specific assay; assay type: cell-based, human; conditions: for IC50: Homo sapiens
Experimental: (§3) A total of 5x10^3 cells/mL/well were seeded in Ultra-low Attachment Plates containing MammoCultTM Basal Medium (Human) (Stem Cell Tech) supplied with 0.48 mg/mL hydrocortisone, 0.2% heparin solution and 10% MammoCult™ Proliferation Supplement (Human). After 4 days, primary tumorspheres were measured, both in size and in number, using an inverted microscope (Olympus CKX41).
as §2

[4] = tested on: U251MG tumorspheres; assay: Cytotoxic assay, tumorsphere specific assay; assay type: cell-based; conditions: Homo sapiens
Experimental: as §3, §2

[5] = tested on: SF268 NAMPT-underexpressing cells; assay: Proliferation assay (growth curve), rescue of NAMPT-underexpressing cells; assay type: cell-based, human; conditions: 1 mM NMN; compared to sh
Experimental: A time course curve of parental (empty vector transfected cells) and NAMPT both cDNA and shRNA-expressing cells was generated by seeding […] in 2.2 cm bottom-well diameter dishes in triplicate samples. After 24 hours, medium was changed (day 0) and the indicated culture media added. Every 24 hours, cells were fixed and stained with crystal violet 1% (SIGMA C6158-50G). After extensive washing, crystal violet was solubilized in 20% acetic acid (Sigma) and quantified at 595 nm absorbance as a relative measure of cell number (BIORAD iMarkTM Microplate Reader). Values are expressed as the percentage of cell growth of cells growing in the presence of 10% FBS. Zero percent refers to the number of cells at day 0.
(§4) NAMPT catalyzes the conversion of nicotinamide to nicotinamide mononucleotide (NMN), which is the rate-limiting step in the NAD salvage pathway. If the enzymatic activity of NAMPT is directly responsible for these phenotypes, the phenotype should be recovered by directly adding the product of the enzyme to cells. Therefore, we repeated the previous surrogate experiments and added saturating concentrations of NMN to cells expressing low levels of NAMPT (sh supplemented with NMN, sh+NMN). In these experiments, we rescued the parental phenotypes by supplying the cells with the NAMPT metabolic product NMN (Figure 6A-D left). […]

[6] = tested on: SF268 NAMPT-underexpressing cells; assay: Colony formation (clonogenicity) assay, rescue; assay type: cell-based, human; conditions: 1 mM NMN; compared to sh
Experimental: (§5) 10^3 cells were seeded in 10 cm plates, every condition in triplicate. The medium was replaced every 3 days and after 12 days the colonies were fixed and stained with a Crystal violet assay. After extensive-washing, colonies were counted. Values are expressed in number of observed colonies among 10^3 seeded cells. To analyze the clonal heterogeneity, 10^2 random colonies were classified in triplicate depending on its phenotype: Holoclone, Meroclone and Paraclone (Li H. et al 2008.; Garcia-Heredia JM, Lucena-Cacace A, Verdugo-Sivianes EM, Perez M, Carnero A. The cargo protein MAP17 (PDZK1IP1) regulates the cancer stem cell pool activating the Notch pathway by abducting NUMB. Clin Cancer Res. 2017 Feb 2. doi: 10.1158/1078-0432.CCR-16-2358. [
as §4

[7] = tested on: SF268 and U251MG NAMPT-underexpressing cells; assay: FACS analysis of CD133 and CD44, rescue; assay type: cell-based, human; conditions: 1 mM NMN; both cell lines
Experimental: Single cells were individually seeded through cell sorting (BD FACS Jazz) in 96 well Ultra-low attachment plates containing MammoCultTM Basal medium (Human) (Stem Cell Tech) supplied with hydrocortisone 0.48 mg/mL, Heparin solution 0.2% and 10% MammoCult™ Proliferation Supplement (Human). After 21 days, primary tumorspheres formed were measured both in size and number using inverted microscope (Olympus CKX41). Fluorescence-activated cell sorting (FAC). For FACS staining, live cells were incubated with CD133 (AC133-PE, Miltenyi) and CD44 (PE, Miltenyi) for 30 minutes at dilutions specified in the manufacturer's protocols.
NAMPT catalyzes the conversion of nicotinamide to nicotinamide mononucleotide (NMN), which is the rate-limiting step in the NAD salvage pathway. If the enzymatic activity of NAMPT is directly responsible for these phenotypes, the phenotype should be recovered by directly adding the product of the enzyme to cells. Therefore, we repeated the previous surrogate experiments and added saturating concentrations of NMN to cells expressing low levels of NAMPT (sh supplemented with NMN, sh+NMN). In these experiments, we rescued the parental phenotypes by supplying the cells with the NAMPT metabolic product NMN (Figure 6A-D left). […] Similar results were found using a second shRNA against NAMPT (Figure 4A, B). […]

[8] = tested on: NAMPT- underexpressing cells; assay: Clonal heterogeneity analysis (clone phenotypes), rescue; assay type: cell-based, human; conditions: 1 mM NMN; both cell lines
Experimental: as §5, §4

[9] = tested on: SF268 NAMPT-underexpressing cells; assay: Sphere-forming assay, rescue; assay type: cell-based, human; conditions: 1 mM NMN; compared to sh
Experimental: as §3
NAMPT catalyzes the conversion of nicotinamide to nicotinamide mononucleotide (NMN), which is the rate-limiting step in the NAD salvage pathway. If the enzymatic activity of NAMPT is directly responsible for these phenotypes, the phenotype should be recovered by directly adding the product of the enzyme to cells. Therefore, we repeated the previous surrogate experiments and added saturating concentrations of NMN to cells expressing low levels of NAMPT (sh supplemented with NMN, sh+NMN). In these experiments, we rescued the parental phenotypes by supplying the cells with the NAMPT metabolic product NMN (Figure 6A-D left). […] Similar results were found using a second shRNA against NAMPT (Figure 4A, B).
Similar results were found using a second shRNA against NAMPT (Figure 4A, B).

[10] = U-251, U251MG NAMPT (overexpressing), combined with constant 150 µM TMZ, read-out: IC50 FK866 + 150 µM TMZ (nM ± SD)
[11] = U-251, U251MG sh (NAMPT shRNA), combined with constant 150 µM TMZ, read-out: IC50 FK866 + 150 µM TMZ (nM ± SD)
[12] = U-251, U251MG v (vector only), combined with constant 150 µM TMZ, read-out: IC50 FK866 + 150 µM TMZ (nM ± SD)
[13] = SF-268, SF268 NAMPT (overexpressing), combined with constant 100 µM TMZ, read-out: IC50 FK866 + 100 µM TMZ (nM ± SD)
[14] = SF-268, SF268 sh (NAMPT shRNA), combined with constant 100 µM TMZ, read-out: IC50 FK866 + 100 µM TMZ (nM ± SD)
[15] = SF-268, SF268 v (vector only), combined with constant 100 µM TMZ, read-out: IC50 FK866 + 100 µM TMZ (nM ± SD)

Cn1nnc2c(C(N)=O)ncn2c1=O [TMZ, Temozolomide]
IC50 ([1]; U-251, 96 h, U251MG NAMPT (overexpressing), monotherapy, 96 hours, read-out: IC50 TMZ (µM ± SD)): 201 ± 5.3 µM
IC50 ([1]; U-251, 96 h, U251MG sh (NAMPT shRNA), monotherapy, 96 hours, read-out: IC50 TMZ (µM ± SD)): 204 ± 4.8 µM
IC50 ([1]; U-251, 96 h, U251MG v (vector only), monotherapy, 96 hours, read-out: IC50 TMZ (µM ± SD)): 194 ± 3.4 µM
IC50 ([2]; SF-268, 96 h, SF268 NAMPT (overexpressing), monotherapy, 96 hours, read-out: IC50 TMZ (µM ± SD)): 174 ± 2.1 µM
IC50 ([2]; SF-268, 96 h, SF268 sh (NAMPT shRNA), monotherapy, 96 hours, read-out: IC50 TMZ (µM ± SD)): 163 ± 2.2 µM
IC50 ([2]; SF-268, 96 h, SF268 v (vector only), monotherapy, 96 hours, read-out: IC50 TMZ (µM ± SD)): 165 ± 1.9 µM
IC50 ([3]; SF-268, SF268 NAMPT (overexpressing), monotherapy, read-out: IC50 TMZ (µM ± SD)): 173 ± 3.2 µM
IC50 ([3]; SF-268, SF268 sh (NAMPT shRNA), monotherapy, read-out: IC50 TMZ (µM ± SD)): 174 ± 3.6 µM
IC50 ([3]; SF-268, SF268 v (vector only), monotherapy, read-out: IC50 TMZ (µM ± SD)): 170 ± 2.1 µM
IC50 ([4]; U-251, U251MG NAMPT (overexpressing), monotherapy, read-out: IC50 TMZ (µM ± SD)): 222 ± 4.7 µM
IC50 ([4]; U-251, U251MG sh (NAMPT shRNA), monotherapy, read-out: IC50 TMZ (µM ± SD)): 221 ± 3.2 µM
IC50 ([4]; U-251, U251MG v (vector only), monotherapy, read-out: IC50 TMZ (µM ± SD)): 224.5 ± 1.7 µM

NC(=O)c1ccc[n+](C2OC(COP(=O)([O-])O)C(O)C2O)c1 (stereo not drawn) [NMN, nicotinamide mononucleotide]
growth curve, vector-proliferation ratio [5]: can rescue the vector-proliferation ratio
clonogenicity [6]: can rescue the clonogenetic ability of the vector
levels of CD44 expression [7]: can rescue the levels of CD44 expression in the vector
levels of CD133 expression [7]: can rescue and surpass the levels of CD133 expression in the vector
number of holoclones [8]: can rescue the number of holoclones in the vector
tumorsphere area / number of tumorspheres [9]: can rescue the number of tumorspheres generated in the vector

O=C(/C=C/c1cccnc1)NCCCCC1CCN(C(=O)c2ccccc2)CC1 [FK866]
IC50 ([1]; U-251, 96 h, U251MG NAMPT (overexpressing), monotherapy, 96 hours, read-out: IC50 FK866 (nM ± SD)): 0.0153 ± 0.0012 µM
IC50 ([1]; U-251, 96 h, U251MG sh (NAMPT shRNA), monotherapy, 96 hours, read-out: IC50 FK866 (nM ± SD)): 0.0223 ± 0.0006 µM
IC50 ([1]; U-251, 96 h, U251MG v (vector only), monotherapy, 96 hours, read-out: IC50 FK866 (nM ± SD)): 0.0207 ± 0.0007 µM
IC50 [1, 10]: 0.0051 ± 0.0014 µM
IC50 [1, 11]: 0.0194 ± 0.0007 µM
IC50 [1, 12]: 0.0143 ± 0.0013 µM
IC50 ([2]; SF-268, 96 h, SF268 NAMPT (overexpressing), monotherapy, 96 hours, read-out: IC50 FK866 (nM ± SD)): 0.0028 ± 0.0003 µM
IC50 ([2]; SF-268, 96 h, SF268 sh (NAMPT shRNA), monotherapy, 96 hours, read-out: IC50 FK866 (nM ± SD)): 0.0083 ± 0.0008 µM
IC50 ([2]; SF-268, 96 h, SF268 v (vector only), monotherapy, 96 hours, read-out: IC50 FK866 (nM ± SD)): 0.0052 ± 0.0009 µM
IC50 [2, 13]: 0.0002 ± 0.0004 µM
IC50 [2, 14]: 0.0061 ± 0.0002 µM
IC50 [2, 15]: 0.0024 ± 0.0004 µM
effect of combined treatment with TMZ on the values ([2]; both in mass cultures and tumorspheres): slightly sensitized
sensitivity of NAMPT-overexpressing cells in mass cultures ([2]; compared with parental cells and NAMPT underexpressing cells): more sensitive
induced toxicity in tumorspheres (CIC population) [3]: effective
IC50 [3, 13]: 0.0005 ± 0.0011 µM
IC50 ([3]; SF-268, SF268 NAMPT (overexpressing), monotherapy, read-out: IC50 FK866 (nM ± SD)): 0.0025 ± 0.0004 µM
IC50 [3, 14]: 0.0073 ± 0.0007 µM
IC50 ([3]; SF-268, SF268 sh (NAMPT shRNA), monotherapy, read-out: IC50 FK866 (nM ± SD)): 0.0095 ± 0.0009 µM
IC50 [3, 15]: 0.0042 ± 0.0003 µM
IC50 ([3]; SF-268, SF268 v (vector only), monotherapy, read-out: IC50 FK866 (nM ± SD)): 0.0061 ± 0.0012 µM
IC50 [4, 10]: 0.0072 ± 0.0007 µM
IC50 ([4]; U-251, U251MG NAMPT (overexpressing), monotherapy, read-out: IC50 FK866 (nM ± SD)): 0.0113 ± 0.0013 µM
IC50 [4, 11]: 0.0254 ± 0.0018 µM
IC50 ([4]; U-251, U251MG sh (NAMPT shRNA), monotherapy, read-out: IC50 FK866 (nM ± SD)): 0.0273 ± 0.0014 µM
IC50 [4, 12]: 0.0171 ± 0.0009 µM
IC50 ([4]; U-251, U251MG v (vector only), monotherapy, read-out: IC50 FK866 (nM ± SD)): 0.0186 ± 0.0019 µM
